According to patent US20240067668A1, “HETEROARYL DERIVATIVE COMPOUND AND USE THEREOF” (VORONOI INC., priority 2020, published 2024):

Legend:
[1] = target: EGFR Del19/T790M/C797S (Homo sapiens, UniProt P00533, C797S/T790M, form not given); assay: Enzyme IC50, EGFR Del19/T790M/C797S; assay type: biochemical
[2] = tested on: BaF3-EGFR (WT) cells; assay: Inhibitory activity on Ba/F3 cell proliferation (CellTiter-Glo, 72 hours); assay type: cell-based; conditions: Ba/F3 cells expressing EGFR WT
Method: (§1) The following experiments were performed to evaluate the inhibitory activity of the compound represented by Chemical Formula 1 according to the present invention on the proliferation of Ba/F3 cells expressing EGFR mutants.
(§2) BaF3-EGFR (WT) and BaF3-EGFR (Del19/T790M/C797S) cells were seeded in a clear bottom white 96-well plate at a density of 3×10^3/100 μl/well, and then 0.5 μl/well of the culture medium, containing the compounds at 12 concentrations (0.00001-2 mM) serially diluted in 3 folds and the DMSO control, was added to a final concentration of 0.00005-10 μM, followed by culturing in a 37° C. CO2 incubator for 72 hours. After 72 hours, the plates treated with the compounds were taken out, treated with 100 μl/well of CellTiter-Glo® 2.0 Assay (Promega) solution, and mixed well. After mixing well at room temperature for about 10 minutes, […] was measured using a microplate reader. As to Data, GI50 (μM) values were calculated using GraphPad Prism 8.3.0 (GraphPad software Inc., San Diego) as percentages in proportion to vehicle-based treated cells. The result values were calculated as a cell growth rate (%) compared to the control group. A graph was created using the GraphPad Prism version 5.0 program, and GI50 (μM) values were calculated.

[3] = tested on: BaF3-EGFR (Del19/T790M/C797S) cells; assay: as above; assay type: cell-based; conditions: Ba/F3 cells expressing EGFR Del19/T790M/C797S
Method: as §1, §2

Sequence of EGFR Del19/T790M/C797S (P00533 25-1210 T790M/C797S, form open): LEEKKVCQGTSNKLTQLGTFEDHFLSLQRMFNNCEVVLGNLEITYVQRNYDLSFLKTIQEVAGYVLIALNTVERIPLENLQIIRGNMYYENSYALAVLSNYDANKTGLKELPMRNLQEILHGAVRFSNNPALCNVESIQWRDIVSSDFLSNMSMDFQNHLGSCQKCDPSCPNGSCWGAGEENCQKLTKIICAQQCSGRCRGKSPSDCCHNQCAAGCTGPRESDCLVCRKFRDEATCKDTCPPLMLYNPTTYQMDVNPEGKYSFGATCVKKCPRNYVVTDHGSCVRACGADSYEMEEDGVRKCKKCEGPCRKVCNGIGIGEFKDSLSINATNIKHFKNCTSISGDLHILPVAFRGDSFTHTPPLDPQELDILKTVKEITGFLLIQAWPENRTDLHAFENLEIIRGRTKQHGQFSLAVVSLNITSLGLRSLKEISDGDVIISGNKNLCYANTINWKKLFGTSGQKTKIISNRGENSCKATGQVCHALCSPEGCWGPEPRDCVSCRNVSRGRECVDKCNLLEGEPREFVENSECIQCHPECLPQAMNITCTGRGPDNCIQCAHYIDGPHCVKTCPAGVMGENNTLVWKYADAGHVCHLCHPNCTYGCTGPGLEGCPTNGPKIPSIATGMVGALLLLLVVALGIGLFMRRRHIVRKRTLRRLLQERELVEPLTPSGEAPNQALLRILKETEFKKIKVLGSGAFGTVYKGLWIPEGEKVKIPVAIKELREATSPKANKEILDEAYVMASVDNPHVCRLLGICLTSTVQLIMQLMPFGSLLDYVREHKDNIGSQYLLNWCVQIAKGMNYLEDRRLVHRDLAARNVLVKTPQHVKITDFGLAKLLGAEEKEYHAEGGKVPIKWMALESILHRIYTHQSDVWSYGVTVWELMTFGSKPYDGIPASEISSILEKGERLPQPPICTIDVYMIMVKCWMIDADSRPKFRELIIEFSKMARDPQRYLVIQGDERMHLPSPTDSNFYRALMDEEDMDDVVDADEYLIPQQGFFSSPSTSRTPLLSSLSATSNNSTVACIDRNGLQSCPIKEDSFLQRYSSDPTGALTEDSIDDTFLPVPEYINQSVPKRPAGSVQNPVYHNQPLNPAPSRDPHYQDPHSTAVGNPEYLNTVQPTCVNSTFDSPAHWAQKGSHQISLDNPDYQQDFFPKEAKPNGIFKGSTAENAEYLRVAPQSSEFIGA

| IC50 [1] | GI50 [2] | GI50 [3] | Compound |
| --- | --- | --- | --- |
| ≤ 0.05 µM | > 0.1 µM | ≤ 0.05 µM | Cn1cc(-c2cc(Nc3nc(Nc4ccc5nccnc5c4P(C)(C)=O)c4cc[nH]c4n3)c(OCC(F)(F)F)cc2N2CCC(N3CCOCC3)CC2)cn1 [Example 6, dimethyl (6-((2-((5-(1-methyl-1H-pyrazol-4-yl)-4-(4-morpholino-piperidin-1-yl)-2-(2,2,2-trifluoroethoxy)phenyl)amino)-7H-pyrrolo[2,3-d]pyrimidin-4-yl)amino)quinoxalin-5-yl)phosphine oxide] |
| ≤ 0.05 µM | > 0.1 µM | ≤ 0.05 µM | COc1ccc(-c2cnn(C)c2)cc1Nc1nc(Nc2ccc3nccnc3c2P(C)(C)=O)c2cc[nH]c2n1 [Example 28, (6-((2-((2-methoxy-5-(1-methyl-1H-pyrazol-4-yl)phenyl)amino)-7H-pyrrolo[2,3-d]pyrimidin-4-yl)amino)quinoxalin-5-yl)dimethyl-phosphine oxide] |
| ≤ 0.05 µM | > 0.1 µM | ≤ 0.05 µM | COc1cc(N2C[C@@H]3C[C@H]2CO3)c(-c2cnn(C)c2)cc1Nc1nc(Nc2ccc3nccnc3c2P(C)(C)=O)c2cc[nH]c2n1 [Example 26, (6-((2-((4-((1s,4S)-2-oxa-5-azabicyclo [2.2.1]heptan-5-yl)-2-methoxy-5-(1-methyl-1H-pyrazol-4-yl)phenyl)amino)-7H-pyrrolo[2,3-d]pyrimidin-4-yl)amino)quinoxalin-5-yl)dimethyl-phosphine oxide] |
| ≤ 0.05 µM | > 0.1 µM | ≤ 0.05 µM | Cc1cc(Nc2nc(Nc3ccc4nccnc4c3P(C)(C)=O)c3cc[nH]c3n2)c(OCC(F)(F)F)cc1N1CCC(N2CCN(C)CC2)CC1 [Example 8, dimethyl (6-((2-((5-methyl-4-(4-(4-methylpiperazin-1-yl)piperidin-1-yl)-2-(2,2,2-trifluoroethoxy)phenyl)amino)-7H-pyrrolo[2,3-d]pyrimidin-4-yl)amino)quinoxalin-5-yl)phosphine oxide] |
| ≤ 0.05 µM | > 0.1 µM | 0.05 to 0.1 µM | CN1CCN(C2CCN(c3cc(OCC(F)(F)F)c(Nc4nc(Nc5ccc6nccnc6c5P(C)(C)=O)c5cc[nH]c5n4)cc3-c3cnn(C)c3)CC2)CC1 [Example 4, dimethyl (6-((2-((5-(1-methyl-1H-pyrazol-4-yl)-4-(4-(4-methylpiperazin-1-yl)piperidin-1-yl)-2-(2,2,2-trifluoroethoxy)phenyl)amino)-7H-pyrrolo[2,3-d]pyrimidin-4-yl)amino)quinoxalin-5-yl) phosphine oxide] |
| ≤ 0.05 µM | > 0.1 µM | ≤ 0.05 µM | CCc1cc(Nc2nc(Nc3ccc4nccnc4c3P(C)(C)=O)c3cc[nH]c3n2)c(OC)cc1N1CCC(N2CCN(C)CC2)CC1 [Example 55, (6-((2-((5-ethyl-2-methoxy-4-(4-(4-methylpiperazin-1-yl)piperidin-1-yl)phenyl)amino)-7H-pyrrolo[2,3-d]pyrimidin-4-yl)amino)quinoxalin-5-yl)dimethyl-phosphine oxide] |
| ≤ 0.05 µM | > 0.1 µM | > 0.1 µM | COc1cc(N2CCN(C)CC2)c(C#N)cc1Nc1nc(Nc2ccc3nccnc3c2P(C)(C)=O)c2cc[nH]c2n1 [Example 81, 5-((4-((5-(dimethyl-phosphoryl)quinoxalin-6-yl)amino)-7H-pyrrolo[2,3-d]pyrimidin-2-yl)amino)-4-methoxy-2-(4-methylpiperazin-1-yl)benzonitrile] |
| ≤ 0.05 µM | > 0.1 µM | > 0.1 µM | C=Cc1cc(Nc2nc(Nc3ccc4nccnc4c3P(C)(C)=O)c3cc[nH]c3n2)c(OC)cc1N1CCN(C)CC1 [Example 82, (6-((2-((2-methoxy-4-(4-methylpiperazin-1-yl)-5-vinylphenyl)amino)-7H-pyrrolo[2,3-d]pyrimidin-4-yl)amino)quinoxalin-5-yl)dimethyl-phosphine oxide] |
| ≤ 0.05 µM | > 0.1 µM | > 0.1 µM | Cc1cn(-c2cc(Nc3nc(Nc4ccc5nccnc5c4P(C)(C)=O)c4cc[nH]c4n3)cc(C(F)(F)F)c2)cn1 [Example 106, dimethyl (6-((2-((3-(4-methyl-1H-imidazol-1-yl)-5-(trifluoromethyl)phenyl)amino)-7H-pyrrolo[2,3-d]pyrimidin-4-yl)amino)quinoxalin-5-yl)phosphine oxide] |
| ≤ 0.05 µM | > 0.1 µM | ≤ 0.05 µM | COc1cc(N2CCN(C)CC2)c(-c2cnn(C)c2)cc1Nc1nc(Nc2ccc3nccnc3c2P(C)(C)=O)c2cc[nH]c2n1 [Example 21, (6-((2-((2-methoxy-5-(1-methyl-1H-pyrazol-4-yl)-4-(4-methylpiperazin-1-yl)phenyl)amino)-7H-pyrrolo[2,3-d]pyrimidin-4-yl)amino)quinoxalin-5-yl) dimethyl-phosphine oxide] |
| ≤ 0.05 µM | > 0.1 µM | > 0.1 µM | COc1cc(N2CCN(C)CC2)c(-c2cnn(C)c2)cc1Nc1nc(Nc2cnc3ccccc3c2P(C)(C)=O)c2cc[nH]c2n1 [Example 89, (3-((2-((2-methoxy-5-(1-methyl-1H-pyrazol-4-yl)-4-(4-methylpiperazin-1-yl)phenyl)amino)-7H-pyrrolo[2,3-d]pyrimidin-4-yl)amino)quinolin-4-yl)dimethyl-phosphine oxide] |
| ≤ 0.05 µM | > 0.1 µM | ≤ 0.05 µM | CN1CCN(c2c(-c3cnn(C)c3)cc(Nc3nc(Nc4ccc5nccnc5c4P(C)(C)=O)c4cc[nH]c4n3)c3c2CCO3)CC1 [Example 116, dimethyl (6-((2-((5-(1-methyl-1H-pyrazol-4-yl)-4-(4-methyl-piperazin-1-yl)-2,3-dihydrobenzo-furan-7-yl)amino)-7H-pyrrolo[2,3-d]pyrimidin-4-yl)amino)quinoxalin-5-yl)phosphine oxide] |
| ≤ 0.05 µM | > 0.1 µM | > 0.1 µM | COc1cc(N2CCC(N3CCN(C)CC3)CC2)c(C)cc1Nc1nc(Nc2ccc3nccnc3c2P(C)(C)=O)c2nc[nH]c2n1 [Example 104, (6-((2-((2-methoxy-5-methyl-4-(4-(4-methylpiperazin-1-yl)piperidin-1-yl)phenyl)amino)-9H-purin-6-yl)amino)quinoxalin-5-yl)dimethyl-phosphine oxide] |
| ≤ 0.05 µM | > 0.1 µM | > 0.1 µM | Cc1cc(Nc2nc(Nc3ccc4nccnc4c3P(C)(C)=O)c3cc[nH]c3n2)c(OCC(F)(F)F)cc1N1CCN(C)CC1 [Example 9, dimethyl (6-((2-((5-methyl-4-(4-methylpiperazin-1-yl)-2-(2,2,2-trifluoroethoxy)phenyl)amino)-7H-pyrrolo[2,3-d]pyrimidin-4-yl)amino)quinoxalin-5-yl)phosphine oxide] |
| ≤ 0.05 µM | > 0.1 µM | ≤ 0.05 µM | COc1cc(N2CCC(N3CCN(C)CC3)CC2)c(-c2cnn(C)c2)cc1Nc1nc(Nc2ccc3nccnc3c2P(C)(C)=O)c2cc[nH]c2n1 [Example 24, (6-((2-((2-methoxy-5-(1-methyl-1H-pyrazol-4-yl)-4-(4-(4-methylpiperazin-1-yl)piperidin-1-yl)phenyl)amino)-7H-pyrrolo[2,3-d]pyrimidin-4-yl)amino)quinoxalin-5-yl)dimethyl-phosphine oxide] |
